We go through five compounds from patent publication US11000487B2, “Compositions and methods for the treatment of chronic pain” (CELLIX BIO PRIVATE LIMITED, priority 2016, dated 2021).

Assay [1] has as its system oral pathogenic microorganisms. The following applies: n-6 fatty acids GLA; cited from earlier work.
The conditions of assay [2]: comparison among long-chain fatty acids; cited from earlier work.
Assay [3] relates to Candida Species. Description: minimum inhibitory concentration against Candida. The assay is classed as cell-based. The following applies: conversion of 0.45 μmoles/ml.
For assay [4], the system named is C. albicans. The following applies: cited from earlier work.
In assay [5] the test system is Candida Species. The following applies: cited from earlier work.

Structures are written as SMILES. Converted amounts (≈) assume the structure as drawn. Like-named read-outs stand apart in the source and are kept apart here.

As a reminder, the MIC is the smallest concentration in the dilution series that meets the test's criterion for growth inhibition.

As to `CCCCC/C=C\C/C=C\C/C=C\CCCCC(=O)O` [GLA, gamma linoleic acid], in assay [1], the bactericidal concentration was 25 µg/mL. Moreover, the “antimicrobial activity among the long-chain fatty acids” value in assay [2] is “greatest antimicrobial activity”. With `CCCCC/C=C\C/C=C\C/C=C\C/C=C\CCCC(=O)O` [arachidonic acid], the “antimicrobial activity among the long-chain fatty acids” value in assay [2] is given as “greatest antimicrobial activity”. For `CCCCC/C=C\C/C=C\CCCCCCCC(=O)O` [linoleic acid], the figures for the MIC in assay [3] and in assay [5] were 0.13 µg/mL (≈ 0.464 µM) and 450 µM (≈ 126 µg/mL), respectively. Besides, in assay [4], the “activity against C. albicans” value was under 40%. In addition, in assay [2], the “antimicrobial activity among the long-chain fatty acids” value was “greatest antimicrobial activity”. Take `CCCCCCCCCCCCCCCC(=O)O` [palmitic acid]: the “antimicrobial activity among the long-chain fatty acids” value in assay [2] is listed as “greatest antimicrobial activity”. For `CCCCCC/C=C\CCCCCCCC(=O)O` [palmitoleic acid], in assay [2], the “antimicrobial activity among the long-chain fatty acids” value is “greatest antimicrobial activity”.
